{"source": "patent US20090215640A1", "about": "“METHODS FOR IDENTIFYING LIGANDS FOR STEM CELLS AND CELLS DERIVED THEREFROM” (priority 2005, published 2009)", "key": {"hESCs": {"tested_on": "hESCs", "assay": "Binding and internalization of mouse selected peptide phage into hESCs", "format": "cell-based, human", "settings": "subpopulation of hESCs"}, "[1]": {"target": "T1, CRIP2 (also known as heart LIM protein (Hlp)) (Mus musculus, UniProt Q9DCT8)", "T1 sequence (Q9DCT8 1-208)": "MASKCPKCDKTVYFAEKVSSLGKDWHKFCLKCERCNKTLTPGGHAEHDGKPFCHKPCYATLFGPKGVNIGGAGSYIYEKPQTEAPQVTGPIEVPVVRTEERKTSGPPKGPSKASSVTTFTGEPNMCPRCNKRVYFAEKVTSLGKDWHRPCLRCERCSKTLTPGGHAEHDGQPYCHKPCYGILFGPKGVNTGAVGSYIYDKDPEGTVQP", "settings": "Zhang et al., Circulation 2005; cited from earlier work"}, "[2]": {"tested_on": "adult heart capillaries and endocardium", "settings": "Zhang et al., Circulation 2005; cited from earlier work"}}}
{"substance": "CRPPR*", "values": [{"measurement": "Binding and internalization into hESCs", "setting": "hESCs", "result": "binds and internalizes into a subpopulation of hESCs"}, {"measurement": "Binding to CRIP2", "setting": "[1]", "result": "binds to CRIP2"}, {"measurement": "Binding to adult heart capillaries and endocardium", "setting": "[2]", "result": "known to bind to adult heart capillaries and endocardium"}]}
